Assay results reported in PMC7496730, “Peptide-PAINT Super-Resolution Imaging Using Transient Coiled Coil Interactions” (Nano Letters, 2020).
Residues, ends and D or L forms follow the SMILES beside them.

Molecular target: E3 peptide (21 amino acid)
Assay: E/K coiled coil stability (length dependence, Figure S1), E3/K3 complex
Type: binding
Conditions: 21 aa long E3 and K3 peptides
Experimental: The PAINT process requires a dynamic equilibrium between bound and unbound states of the fluorescently labeled imager probe. In DNA-PAINT, this is achieved when the transiently formed duplexes have stabilities in the micromolar range (KD ≈ 1 μM). The interaction between the 21 amino acid (aa) long E3 and K3 peptides previously used for protein imaging[20]−[23] leads to a coiled coil complex with nanomolar stability (KD ≈ 20 nM, Figure S1). Aiming for the identification of a suitable weaker affinity, we investigated the length dependence of coiled coil stability (Figure S1).

- Kd: ~20 nM
SMILES: CC[C@H](C)[C@H](NC(=O)[C@H](CCCCN)NC(C)=O)C(=O)N[C@@H](C)C(=O)N[C@@H](C)C(=O)N[C@@H](CC(C)C)C(=O)N[C@@H](CCCCN)C(=O)N[C@@H](CCC(=O)O)C(=O)N[C@@H](CCCCN)C(=O)N[C@H](C(=O)N[C@@H](C)C(=O)N[C@@H](C)C(=O)N[C@@H](CC(C)C)C(=O)N[C@@H](CCCCN)C(=O)N[C@@H](CCC(=O)O)C(=O)N[C@@H](CCCCN)C(=O)N[C@H](C(=O)N[C@@H](C)C(=O)N[C@@H](C)C(=O)N[C@@H](CC(C)C)C(=O)N[C@@H](CCCCN)C(=O)N[C@@H](CCC(=O)O)C(N)=O)[C@@H](C)CC)[C@@H](C)CC [K3] (Ac-KIAALKEKIAALKEKIAALKE-NH2)
